Measurements reported in patent US20110092544A1, “FUNGICIDAL PYRIDINES” (E.I. DU PONT DE nemours and company, priority 2008, published 2011).

Columns and labels:
Assay type in all cases: in vivo
[1] = system: Erysiphe graminis f. sp. tritici; assay: Test A: wheat powdery mildew, preventive spray on wheat seedlings, visual disease rating; settings: for pest or weed control at 200 ppm: Blumeria graminis, 192 h
Summary of the method: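 Acetone/water (50/50) suspension with 250 ppm surfactant sprayed to run-off on wheat seedlings (200 ppm ≈ 500 g/ha); inoculated next day with E. graminis spore dust. Incubated 8 days at 20° C, then visually rated 0–100% disease control versus untreated controls; tests at 200 ppm or 40 ppm.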

[2] = system: Puccinia recondite f. sp. tritici; assay: Test B: wheat leaf rust, preventive spray on wheat seedlings, visual disease rating; settings: for pest or weed control at 200 ppm: 192 h
Summary of the method: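 Wheat seedlings were sprayed to run-off with compound suspension, 200 ppm (≈500 g/ha) or 40 ppm where marked, containing surfactant in acetone/water. Inoculation with Puccinia recondita spores followed one day later, then 24 h in saturated humidity at 20° C and 7 days at 20° C. Disease control was rated visually, 0–100% versus controls.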

[3] = system: Septoria tritici; assay: Test C: wheat leaf blotch, preventive spray on wheat seedlings, visual disease rating; settings: for pest or weed control at 200 ppm: Zymoseptoria tritici, 504 h
Summary of the method: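 Wheat seedlings sprayed to run-off with compound in acetone/water plus 250 ppm surfactant at 200 ppm (≈500 g/ha), or 40 ppm where marked; inoculated with Septoria tritici next day. Held saturated at 20 °C for 48 h, then 19 days at 20 °C; disease control rated visually 0–100 versus controls.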

[4] = system: Septoria nodorum; assay: Test D: wheat glume blotch, preventive spray on wheat seedlings, visual disease rating; settings: for pest or weed control at 200 ppm: Parastagonospora nodorum, 216 h
Summary of the method: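 Compounds in 3% acetone, then 50/50 acetone–water with 250 ppm Trem 014, sprayed to run-off at 200 ppm (500 g/ha; some at 40 ppm) one day before spore inoculation. Held 48 h saturated at 20 °C, then 7 days at 20 °C; visual rating as % disease control vs untreated (0–100).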

[5] = system: Alternaria solani; assay: Test E: tomato early blight, preventive spray on tomato seedlings, visual disease rating; settings: for pest or weed control at 200 ppm: Alternaria solani, 168 h
Summary of the method: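 Seedlings sprayed to run-off with compound in acetone/water plus 250 ppm Trem 014 (200 ppm ≈ 500 g/ha), inoculated with spores next day. Held 48 h saturated at 27 °C, then 5 days at 20 °C; visual rating 0–100% disease control relative to controls.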

[6] = system: Botrytis cinerea; assay: Test F: tomato botrytis, preventive spray on tomato seedlings, visual disease rating; settings: for pest or weed control at 200 ppm: Botrytis cinerea, 120 h
Summary of the method: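 Tomato seedlings sprayed to run-off with compound suspended in acetone/water (50/50) plus 250 ppm Trem 014, at 200 ppm (≈500 g/ha) or 40 ppm where marked. Inoculated next day with B. cinerea spores, 48 h saturated atmosphere at 20 °C, then 3 days at 24 °C. Visual rating, 0–100% disease control relative to controls.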

[7] = system: Plasmopara viticola; assay: Test H: grape downy mildew, spray after inoculation of grape seedlings, visual disease rating; settings: 200 ppm, 100 = 100% disease control, 0 = no control; for pest or weed control at 200 ppm: Plasmopara viticola, 192 h
From the text: General protocol for preparing test suspensions for Tests A-H: The test compounds were first dissolved in acetone in an amount equal to 3% of the final volume and then suspended at the desired concentration (in ppm) in acetone and purified water (50/50 mix) containing 250 ppm of the surfactant Trem® 014 (polyhydric alcohol esters). The resulting test suspensions were then used in tests A-H. Spraying a 200 ppm test suspension to the point of run-off on the test plants was the equivalent of a rate of 500 g/ha.
Grape seedlings were inoculated with a spore suspension of Plasmopara viticola (the causal agent of grape downy mildew) and incubated in a saturated atmosphere at 20° C. for 24 h. After a short drying period, the test suspension was sprayed to the point of run-off on the grape seedlings, and then moved to a growth chamber at 20° C. for 6 days, after which time the test units were placed back into a saturated atmosphere at 20° C. for 24 h. Upon removal, disease ratings were visually made.
Results for Tests A-H are given in Table A. In the table, a rating of 100 indicates 100% disease control and a rating of 0 indicates no disease control (relative to the controls). A dash (-) indicates no test results. All results are for compounds tested at 200 ppm except where the compound number is followed by “*” which indicates the compound was tested at 40 ppm.

[8] = 200 ppm, 100 = 100% disease control, 0 = no control
[9] = 40 ppm (compound number followed by *)

Row | SMILES | Test A rating (% disease control) [1, 8] | Test B rating (% disease control) [2, 8] | Test C rating (% disease control) [3, 8] | Test D rating (% disease control) [4, 8] | Test E rating (% disease control) [5, 8] | Test F rating (% disease control) [6, 8] | Test H rating (% disease control) [7] | further results
1 | CCOC(=O)c1cnc(C)c(-c2ccccc2)c1-c1cc(OC)cc(OC)c1F [Compound 26] | 94% | 68% | 86% | 0% | 0% | 98% | 0% | –
2 | COc1cc(OC)cc(-c2c(C(C)C)cnc(C)c2-c2ccccc2F)c1 [Compound 21] | 100% | 99% | 100% | 0% | 97% | 98% | 40% | –
3 | CCOC(=O)c1cnc(C)c(-c2ccccc2)c1-c1cc(OC)ccc1F [Compound 15] | 82% | 0% | 7% | 0% | 0% | 96% | 0% | –
4 | CCc1ncc(C(C)C)c(-c2cc(OC)cc(OC)c2)c1-c1ccccc1 [Compound 30] | 98% | 80% | 100% | 0% | 0% | 99% | 0% | –
5 | CCOC(=O)c1cnc(C)c(-c2ccc(F)cc2)c1-c1cc(OC)cc(OC)c1 [Compound 11, ethyl 4-(3,5-dimethoxyphenyl)-5-(4-fluorophenyl)-6-methyl-3-pyridinecarboxylate] | – | – | – | – | – | – | – | pest or weed control at 200 ppm [1, 8]: 98%; pest or weed control at 200 ppm [2, 8]: 0%; pest or weed control at 200 ppm [3, 8]: 30%; pest or weed control at 200 ppm [4, 8]: 0%; pest or weed control at 200 ppm [5, 8]: 0%; pest or weed control at 200 ppm [6, 8]: 0%; pest or weed control at 200 ppm [7]: 0%
6 | COc1cc(OC)cc(-c2c(C(C)=O)cnc(C)c2-c2ccc(F)cc2)c1 [Compound 12, 1-[4-(3,5-dimethoxyphenyl)-5-(4-fluorophenyl)-6-methyl-3-pyridinyl]ethanone] | – | – | – | – | – | – | – | pest or weed control at 200 ppm [1, 8]: 95%; pest or weed control at 200 ppm [2, 8]: 93%; pest or weed control at 200 ppm [3, 8]: 92%; pest or weed control at 200 ppm [4, 8]: 0%; pest or weed control at 200 ppm [5, 8]: 90%; pest or weed control at 200 ppm [6, 8]: 99%; pest or weed control at 200 ppm [7]: 0%
7 | CCOC(=O)c1c[n+]([O-])c(C)c(-c2ccccc2)c1-c1cc(OC)cc(OC)c1 [Compound 51] | 76% | 0% | – | 0% | 0% | 0% | 0% | –
8 | COc1cc(OC)cc(-c2c(C(C)(C)O)cnc(C)c2-c2ccc(F)cc2)c1 [Compound 13, 4-(3,5-dimethoxyphenyl)-5-(4-fluorophenyl)-α,α,6-trimethyl-3-pyridinemethanol] | – | – | – | – | – | – | – | pest or weed control at 200 ppm [1, 8]: 96%; pest or weed control at 200 ppm [2, 8]: 99%; pest or weed control at 200 ppm [3, 8]: 100%; pest or weed control at 200 ppm [4, 8]: 0%; pest or weed control at 200 ppm [5, 8]: 100%; pest or weed control at 200 ppm [6, 8]: 99%; pest or weed control at 200 ppm [7]: 0%
9 | CCC(C)(O)c1cnc(C)c(-c2ccc(F)cc2)c1-c1cc(OC)cc(OC)c1 (stereo not shown) [Compound 14] | 97% | 98% | 99% | 0% | 99% | 99% | 0% | –
10 | COc1cc(OC)cc(-c2c(-c3ccccc3F)c[n+]([O-])c(C)c2-c2ccccc2)c1 [Compound 33] | 79% | – | – | – | 100% | 95% | 0% | –
11 | COc1cc(OC)cc(-c2c(C(C)=O)cnc(C)c2-c2ccccc2)c1 [Compound 2] | 95% | 0% | – | 0% | 0% | 99% | 0% | –
12 | CCc1ncc(C(C)=O)c(-c2cc(OC)cc(OC)c2)c1-c1ccccc1 [Compound 27] | 98% | 80% | 100% | 0% | 92% | 99% | 0% | –
13 | CCOC(=O)c1cnc(C)c(-c2ccccc2)c1-c1cc(OC)cc(OC)c1 [Compound 1] | 96% | 28% | – | 0% | 0% | 99% | 0% | –
14 | COc1cc(OC)cc(-c2c(C)cnc(C)c2-c2c(F)cc(F)cc2F)c1 [Compound 129] | – | – | – | – | – | – | – | Test A rating (% disease control) [1, 9]: 99%; Test B rating (% disease control) [2, 9]: 100%; Test C rating (% disease control) [3, 9]: 99%; Test D rating (% disease control) [4, 9]: 60%; Test E rating (% disease control) [5, 9]: 66%; Test F rating (% disease control) [6, 9]: 99%
15 | COc1cc(OC)cc(-c2c(-c3ccc(Cl)nc3)cnc(C)c2-c2c(F)cc(F)cc2F)c1 [Compound 127] | – | – | – | – | – | – | – | Test A rating (% disease control) [1, 9]: 90%; Test B rating (% disease control) [2, 9]: 97%; Test C rating (% disease control) [3, 9]: 99%; Test D rating (% disease control) [4, 9]: 0%; Test E rating (% disease control) [5, 9]: 0%; Test F rating (% disease control) [6, 9]: 99%
16 | COc1cc(OC)cc(-c2c(C=O)cnc(C)c2-c2c(F)cc(F)cc2F)c1 [Compound 112] | – | – | – | – | – | – | – | Test A rating (% disease control) [1, 9]: 96%; Test B rating (% disease control) [2, 9]: 80%; Test C rating (% disease control) [3, 9]: 93%; Test D rating (% disease control) [4, 9]: 0%; Test E rating (% disease control) [5, 9]: 9%; Test F rating (% disease control) [6, 9]: 96%
